Values of other authors, collected in publication PMC11923636, “Synthesis, Pharmacological Evaluation, and Molecular Modeling of Phthalimide Derivatives as Monoamine Oxidase and Cholinesterase Dual Inhibitors” (ACS Omega, 2025).

Test system: MAO-B
Details: weak inhibition compared to the standard; ref number not given; cited from earlier work

N-benzylphthalimide [V]
IC50: 10.5 µM
